# PubChem BioAssay (NCI)
# Where “and” joins values, the source holds several entries; their conditions need not be identical. Equal entries are not always repeated.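 All cell lines were grown in 96-well plates and treated with compound for 48 hours. At the GI50, growth is halved. TGI is the concentration that stops growth completely.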
# Key:
# Assay in all cases: NCI anticancer screen, dose series, 48 h
# 786-0 renal = system: 786-0 renal
# HL-60(TB) leukemia = system: HL-60(TB) leukemia
# HS 578T breast = system: HS 578T breast
# MALME-3M melanoma = system: MALME-3M melanoma
# NCI-H522 lung = system: NCI-H522 lung
# RPMI-8226 leukemia = system: RPMI-8226 leukemia
# SF-295 CNS = system: SF-295 CNS
# SK-OV-3 ovarian = system: SK-OV-3 ovarian
# SR leukemia = system: SR leukemia
# UO-31 renal = system: UO-31 renal
Compound,GI50 (786-0 renal),TGI (786-0 renal),GI50 (HL-60(TB) leukemia),TGI (HL-60(TB) leukemia),TGI (HS 578T breast),GI50 (MALME-3M melanoma),TGI (MALME-3M melanoma),GI50 (NCI-H522 lung),TGI (NCI-H522 lung),GI50 (RPMI-8226 leukemia),TGI (RPMI-8226 leukemia),GI50 (SF-295 CNS),TGI (SF-295 CNS),GI50 (SK-OV-3 ovarian),TGI (SK-OV-3 ovarian),TGI (SR leukemia),GI50 (UO-31 renal),TGI (UO-31 renal),GI50 (HS 578T breast),GI50 (SR leukemia)
OCC1OC(n2cnc3c2NC=NC[C@H]3O)CC1O (stereo not given in full),> 588 µM,500 µM and > 588 µM,219 µM,465 µM and > 588 µM,> 500 µM,> 588 µM,471 µM and > 588 µM,> 588 µM,500 µM and > 588 µM,> 588 µM,500 µM and > 588 µM,> 588 µM,475 µM and > 588 µM,> 588 µM,474 µM and > 588 µM,443 µM,> 588 µM,500 µM and > 588 µM,–,–
COc1ccc(OC)c(/C=C2\COc3ccc(O)c(O)c3C2=O)c1,2.28 µM,7.12 µM,1.42 µM,16.1 µM,36.8 µM,2.1 µM,6.58 µM,0.219 µM,0.58 µM,0.751 µM,6.12 µM,4.29 µM,15.5 µM,6.94 µM,22.5 µM,> 100 µM,1.22 µM,2.6 µM,5.3 µM,1.36 µM
NC1=CC(=O)c2nc3ccccc3c3ccnc1c23,7.49 µM,> 66.5 µM,6.38 µM,> 58.8 µM,5.73 µM,0.0856 µM,0.556 µM,2.48 µM,17.3 µM,5.18 µM,> 100 µM,0.19 µM,> 39.5 µM,12 µM,> 52.9 µM,> 100 µM,3.49 µM,> 56.4 µM,0.766 µM,2.47 µM
COc1cc(C2CC(c3ccccc3)=NN2C(C)=O)cc(OC)c1OC (stereo not given),5.93 µM,> 100 µM,3.26 µM,> 31.7 µM,34.6 µM,13 µM,> 100 µM,5.53 µM,> 100 µM,2.56 µM,> 27.7 µM,0.576 µM,4.15 µM,3.91 µM,> 100 µM,> 100 µM,7.09 µM,> 100 µM,2.57 µM,0.996 µM
N#C/C(=C1C=C/C(=N\O)C(Cl)=C\1)c1ccccc1,0.745 µM,11.9 µM,2.19 µM,5.67 µM,38.5 µM,7.35 µM,29.9 µM,1.98 µM,7.92 µM,0.451 µM,4.41 µM,3.74 µM,> 100 µM,3.77 µM,14.4 µM,11.3 µM,1.74 µM,17.1 µM,3.58 µM,1.8 µM
CC1OC(n2c3ccccc3c3c4c(c5c6ccccc6[nH]c5c32)C(=O)N(CCN2CCOCC2)C4=O)CC(O)C1O (stereo not given),1.49 µM,6.53 µM,2.28 µM,13.1 µM,16.2 µM,4.54 µM,12.8 µM,1.52 µM,11.1 µM,2.97 µM,20.7 µM,1.61 µM,6.23 µM,2.29 µM,9.77 µM,14.5 µM,1.96 µM,10.8 µM,6.32 µM,0.257 µM
CCCCCCCCCCCCCCCCCC(=O)OCC(COC1OC(CS(=O)(=O)O)C(O)C(O)C1O)OC(=O)CCCCCCCCCCCCCCCCC (stereo not given),–,> 100 µM,–,> 100 µM,> 100 µM,–,> 100 µM,–,> 100 µM,–,> 100 µM,–,> 100 µM,–,> 100 µM,4.42 µM,–,–,–,–
Cn1ccnc1C(=O)/C=C/c1ccc(CC(=O)Nc2ccc(F)cc2)cc1,1.37 µM,7.09 µM,1.6 µM,12.4 µM,> 25 µM,5.28 µM,14.9 µM,3.34 µM,8.41 µM,1.02 µM,5.44 µM,4.55 µM,19.1 µM,9.81 µM,> 25 µM,> 25 µM,1.72 µM,5.16 µM,15 µM,0.517 µM
CC(C)NC(=O)OCc1c(COC(=O)NC(C)C)c(-c2ccc(Cl)c(Cl)c2)n2c1CCC2,–,44.5 µM,–,48.2 µM,> 100 µM,–,70.8 µM,–,> 74.4 µM,–,73.3 µM,–,72.8 µM,–,> 76.8 µM,36.3 µM,–,63.5 µM,–,–
N#Cc1cc(N(CCCl)CCCl)c([N+](=O)[O-])cc1[N+](=O)[O-],–,> 100 µM,–,80.9 µM,> 100 µM,–,> 100 µM,–,> 100 µM,–,> 100 µM,–,> 100 µM,–,> 100 µM,35.8 µM,–,> 100 µM,–,–
COc1ccc(-c2nn(-c3cccc(NC(=O)c4cccc(C(F)(F)F)c4)c3)cc2-c2ccncc2)cc1Cl,2.91 µM,27.5 µM,2.96 µM,8.64 µM,8.74 µM,1.46 µM,> 100 µM,0.475 µM,3.55 µM,2.5 µM,49 µM,2.37 µM,9.91 µM,3.91 µM,> 100 µM,5.44 µM,2.85 µM,> 100 µM,1.54 µM,0.605 µM
Cc1[nH]nc2ccc3nc(-c4ccc5[nH]ncc5c4)c4c(c3c12)CCCC4,1.19 µM,12.9 µM,1.73 µM,4.32 µM,12.5 µM,1.33 µM,6.32 µM,0.446 µM,6.01 µM,1.51 µM,6.65 µM,2.74 µM,10.5 µM,0.243 µM,0.94 µM,25.7 µM,0.802 µM,5.99 µM,1.34 µM,0.525 µM
CC(=O)OC1Oc2cc(C)c(C)cc2-c2oc(=O)c(-c3ccc(F)cc3)cc21 (stereo not given),9.55 µM,> 100 µM,3.71 µM,> 100 µM,68.6 µM,5.04 µM,31.7 µM,4.53 µM,19 µM,2.52 µM,9.04 µM,3.92 µM,> 100 µM,4.38 µM,54 µM,5.22 µM,4.92 µM,> 100 µM,8.56 µM,1.21 µM
CC(C(=O)O)/C(=C\c1ccc2c(c1)OCO2)C(=O)O (stereo not given),–,> 100 µM,–,0.21 µM,> 100 µM,–,> 100 µM,–,> 100 µM,–,> 100 µM,–,> 100 µM,–,> 100 µM,> 100 µM,–,> 100 µM,–,–
O=C1CCC(N2Cc3c(C#CCCCNC(=O)c4cc5c(o4)C(=O)c4ccccc4C5=O)cccc3C2=O)C(=O)N1 (stereo not given),15.3 µM,32 µM,2.37 µM,7.34 µM,5.64 µM,0.988 µM,2.19 µM,1.98 µM,4.61 µM,6.93 µM,30.1 µM,2.84 µM,8.03 µM,15.9 µM,30.4 µM,14.5 µM,14 µM,36.1 µM,2.39 µM,3.15 µM
Cc1cc(C)c2nc3nc(C)cc(C)c3c(N)c2c1,4.07 µM,17.4 µM,2.74 µM,12.9 µM,45.2 µM,4.19 µM,16.6 µM,5.46 µM,22.6 µM,4.55 µM,24.8 µM,2.4 µM,12 µM,4.1 µM,23.5 µM,13.3 µM,2.9 µM,16 µM,12.7 µM,2.47 µM
Cc1ccc(-c2nc(N)c(C#N)c3c2CCOc2c-3ccc3ccccc23)cc1,0.363 µM,12.7 µM,0.0891 µM,0.916 µM,1.51 µM,0.0779 µM,7.89 µM,0.507 µM,> 100 µM,0.29 µM,2.26 µM,0.144 µM,1.87 µM,3.42 µM,–,> 100 µM,4.14 µM,> 100 µM,0.227 µM,0.0882 µM
Brc1ccccc1C=NC12CC3CC(CC(C3)C1)C2,–,> 100 µM,–,4.37 µM,> 100 µM,–,> 100 µM,–,> 100 µM,–,> 100 µM,–,> 100 µM,–,> 100 µM,> 28.2 µM,–,> 100 µM,–,–
H-HIIKKIRTWYRKAWHVLGKV-NH2,3.37 µM,16.6 µM,4.29 µM,23.3 µM,18.7 µM,2.29 µM,5.25 µM,11.1 µM,63.3 µM,8.62 µM,45 µM,4.8 µM,22.8 µM,6.36 µM,22.2 µM,87.8 µM,18.6 µM,36.5 µM,3.56 µM,7.13 µM
Cc1sc(NC2=NC(=O)/C(=C\c3ccccc3)S2)nc1-c1nc(NC2=NC(=O)/C(=C\c3ccccc3)S2)sc1C,11.4 µM,33.4 µM,18 µM,> 50 µM,> 50 µM,–,–,22.3 µM,> 50 µM,8.45 µM,31.6 µM,13.2 µM,> 40.7 µM,–,–,21.4 µM,24.9 µM,> 44.4 µM,3.13 µM,7.49 µM
O=C(O)c1c[nH]c2c(OCc3ccccc3)c3ccccc3c(O)c2c1=O,21.7 µM,43.9 µM,19.7 µM,46.1 µM,70.1 µM,–,–,25.7 µM,> 100 µM,9.04 µM,35.8 µM,13 µM,27.8 µM,23.7 µM,85.6 µM,59.6 µM,20 µM,> 100 µM,33.2 µM,28.3 µM
O=C(Cc1ccccc1)NC(c1ccc(Cl)cc1)c1c(O)ccc2ccccc12 (stereo not given),2.87 µM,9.76 µM,2.43 µM,6.39 µM,13.8 µM,2.69 µM,8.22 µM,2.82 µM,7.57 µM,2.84 µM,8.36 µM,2.35 µM,7.5 µM,3.01 µM,9.26 µM,10.1 µM,2.41 µM,8.93 µM,2.81 µM,2.56 µM
O=C1CC[C@H](c2ccc(O)c3c2C(=O)[C@@H]2O[C@@H]2C3=O)c2cccc(O)c21,1.79 µM,3.43 µM,1.93 µM,5.87 µM,97.2 µM,2.31 µM,6.37 µM,1.72 µM,3.33 µM,–,–,15.4 µM,29.7 µM,16.6 µM,30.4 µM,4.57 µM,1.57 µM,3.16 µM,3.78 µM,0.835 µM
COc1cc(/C=C2\C(=O)N(c3ccccc3)c3ccccc32)cc(OC)c1OC,6.67 µM,21.2 µM,2.68 µM,15 µM,> 100 µM,18.5 µM,46.4 µM,6.31 µM,23.3 µM,2.17 µM,5.78 µM,17.8 µM,81.3 µM,18.4 µM,43.8 µM,10.4 µM,13.7 µM,31.3 µM,28.2 µM,2.1 µM
COc1ccc(-c2nc(N3CCOCC3)c3sc(CN(C)c4ncc(C(=O)NO)cn4)cc3n2)cn1,0.0313 µM,0.171 µM,< 0.01 µM,1.06 µM,0.155 µM,< 0.01 µM,0.0352 µM,–,–,< 0.01 µM,–,< 0.01 µM,0.042 µM,–,–,0.234 µM,< 0.01 µM,0.0705 µM,< 0.0122 µM,< 0.01 µM
O=C(NCCNc1nccc(-c2c(-c3ccc(F)cc3)nc3sccn23)n1)c1ccccc1,15.3 µM,> 100 µM,21.3 µM,77.4 µM,> 100 µM,–,–,11.1 µM,27.4 µM,5.88 µM,27 µM,6.97 µM,27.5 µM,12.5 µM,53.8 µM,47.3 µM,1.75 µM,18.5 µM,20.4 µM,16.7 µM
Cc1cc(=O)oc2c(OS(C)(=O)=O)c(OS(C)(=O)=O)ccc12,–,> 100 µM,–,> 100 µM,> 100 µM,–,> 100 µM,–,> 100 µM,–,> 100 µM,–,> 100 µM,–,–,> 100 µM,–,> 100 µM,–,–
COC1=CC(c2ccc[nH]2)=N/C1=C\c1[nH]c(C)c(C(C)=O)c1C,0.309 µM,1.62 µM,0.168 µM,–,> 100 µM,–,–,1.6 µM,–,0.329 µM,2.69 µM,10 µM,> 100 µM,> 25.9 µM,> 100 µM,0.379 µM,0.226 µM,0.641 µM,0.552 µM,–
